Experimental data published in ChEMBL document CHEMBL1201862, “PubChem BioAssay data set” (2004).
The source made the active and inactive calls.

How the values were obtained:
[1] = intracellular Trypanosoma cruzi inhibitors in host cells – cell-based, plate reader, cherry-pick samples, set 3, dose response (AID 651818); assay type: functional;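 note: compounds incubated with infected cells for about four days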
Fatty acid synthase [2] = target: T1, Fatty acid synthase (Homo sapiens, UniProt P49327); experiment: inhibition of human FAS-TE enzyme activity – biochemical, kinetic fluorescence intensity, dose response (AID 624326); assay type: functional;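 note: rate of fluorescence rise from hydrolysis of a fluorogenic O-methyl fluorescein ester substrate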
T1 sequence (P49327 whole entry): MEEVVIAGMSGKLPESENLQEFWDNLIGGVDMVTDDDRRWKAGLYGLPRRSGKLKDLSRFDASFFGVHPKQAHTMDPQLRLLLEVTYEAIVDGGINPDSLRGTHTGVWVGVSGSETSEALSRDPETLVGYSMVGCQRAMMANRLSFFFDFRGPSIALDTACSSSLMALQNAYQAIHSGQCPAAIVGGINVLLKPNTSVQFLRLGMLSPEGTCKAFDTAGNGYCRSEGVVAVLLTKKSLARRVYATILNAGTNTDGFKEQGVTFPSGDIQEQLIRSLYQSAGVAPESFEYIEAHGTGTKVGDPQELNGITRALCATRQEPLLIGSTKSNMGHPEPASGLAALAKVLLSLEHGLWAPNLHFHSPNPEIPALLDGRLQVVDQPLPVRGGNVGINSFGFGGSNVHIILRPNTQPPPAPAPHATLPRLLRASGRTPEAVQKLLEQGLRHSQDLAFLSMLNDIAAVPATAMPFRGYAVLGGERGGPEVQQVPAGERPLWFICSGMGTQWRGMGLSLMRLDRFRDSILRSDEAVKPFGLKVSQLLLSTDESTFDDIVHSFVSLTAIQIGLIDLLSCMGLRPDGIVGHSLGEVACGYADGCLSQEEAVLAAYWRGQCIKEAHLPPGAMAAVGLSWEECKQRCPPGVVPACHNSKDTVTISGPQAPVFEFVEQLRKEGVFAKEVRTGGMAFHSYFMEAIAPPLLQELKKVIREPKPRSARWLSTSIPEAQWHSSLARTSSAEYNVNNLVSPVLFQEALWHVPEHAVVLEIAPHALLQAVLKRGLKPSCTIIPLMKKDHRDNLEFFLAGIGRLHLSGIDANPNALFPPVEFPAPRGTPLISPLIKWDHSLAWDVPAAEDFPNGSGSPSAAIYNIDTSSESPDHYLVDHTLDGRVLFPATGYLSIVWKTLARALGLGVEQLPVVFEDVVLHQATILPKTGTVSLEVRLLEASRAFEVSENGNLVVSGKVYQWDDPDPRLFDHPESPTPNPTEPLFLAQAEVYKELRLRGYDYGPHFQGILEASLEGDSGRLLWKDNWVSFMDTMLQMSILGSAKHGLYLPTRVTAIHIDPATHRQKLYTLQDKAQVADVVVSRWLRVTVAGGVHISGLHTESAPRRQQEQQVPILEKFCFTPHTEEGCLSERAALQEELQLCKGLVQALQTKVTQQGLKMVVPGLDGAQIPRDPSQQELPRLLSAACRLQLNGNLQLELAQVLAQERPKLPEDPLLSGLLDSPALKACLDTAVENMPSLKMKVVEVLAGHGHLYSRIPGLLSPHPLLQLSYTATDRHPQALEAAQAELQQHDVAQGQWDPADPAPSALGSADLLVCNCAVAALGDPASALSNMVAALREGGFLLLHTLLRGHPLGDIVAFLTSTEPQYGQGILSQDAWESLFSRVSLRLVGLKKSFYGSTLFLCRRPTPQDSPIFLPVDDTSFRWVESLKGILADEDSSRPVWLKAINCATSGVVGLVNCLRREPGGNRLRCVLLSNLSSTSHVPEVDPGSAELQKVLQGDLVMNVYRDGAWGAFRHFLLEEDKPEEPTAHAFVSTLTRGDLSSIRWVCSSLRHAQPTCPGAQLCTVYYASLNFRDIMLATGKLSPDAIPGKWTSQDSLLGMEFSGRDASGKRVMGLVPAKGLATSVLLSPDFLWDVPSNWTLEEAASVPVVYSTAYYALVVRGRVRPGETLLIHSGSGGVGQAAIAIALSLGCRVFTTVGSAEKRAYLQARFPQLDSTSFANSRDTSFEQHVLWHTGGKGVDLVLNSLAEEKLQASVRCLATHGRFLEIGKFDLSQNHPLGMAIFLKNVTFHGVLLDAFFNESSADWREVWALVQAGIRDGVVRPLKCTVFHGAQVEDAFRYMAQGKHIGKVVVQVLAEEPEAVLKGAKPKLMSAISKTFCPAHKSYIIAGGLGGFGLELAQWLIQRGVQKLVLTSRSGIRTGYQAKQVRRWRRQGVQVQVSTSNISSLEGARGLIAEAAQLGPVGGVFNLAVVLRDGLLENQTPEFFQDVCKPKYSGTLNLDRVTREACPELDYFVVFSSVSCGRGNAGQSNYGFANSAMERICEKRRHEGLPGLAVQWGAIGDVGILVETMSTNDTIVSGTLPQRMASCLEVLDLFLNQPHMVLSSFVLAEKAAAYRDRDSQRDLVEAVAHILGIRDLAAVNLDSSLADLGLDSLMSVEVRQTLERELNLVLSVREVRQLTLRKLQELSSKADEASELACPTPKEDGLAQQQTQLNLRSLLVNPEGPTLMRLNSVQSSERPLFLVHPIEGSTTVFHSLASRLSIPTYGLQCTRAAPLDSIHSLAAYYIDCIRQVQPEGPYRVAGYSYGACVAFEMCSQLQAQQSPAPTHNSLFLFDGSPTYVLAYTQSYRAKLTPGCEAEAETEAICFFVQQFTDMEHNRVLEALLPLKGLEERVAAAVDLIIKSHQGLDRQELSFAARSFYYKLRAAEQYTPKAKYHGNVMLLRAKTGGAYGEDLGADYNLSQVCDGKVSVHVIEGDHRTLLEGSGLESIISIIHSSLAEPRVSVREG

Fatty acid synthase [3] = target: T1, Fatty acid synthase; experiment: inhibition of human FAS-TE enzyme activity – biochemical, endpoint fluorescence intensity, uHTS hits, dose response (AID 624327); assay type: functional;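 note: fluorescence from hydrolysis of an O-methyl fluorescein acyl ester substrate by the enzyme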
HEK293 [4] = experiment: cells; assay type: functional, cell-based; details: Homo sapiens
HEK293 [5] = experiment: cells; assay type: functional, cell-based; details: Homo sapiens; remark: listed apart in the source
HEK293 [6] = experiment: NOD2 signaling inhibitors in MDP-stimulated cells, cell-based, uHTS, luminescence (AID 2001); assay type: functional; details: Homo sapiens
[7] = target: Nucleotide-binding oligomerization domain-containing protein 2 (Homo sapiens, UniProt Q9HC29); experiment: inhibition of NOD2-driven NF-kB reporter – cell-based, luminescence, uHTS, HEK293 (AID 1566); assay type: functional
Sequence of Nucleotide-binding oligomerization domain-containing protein 2 (Q9HC29 whole entry, the tested form may be a part): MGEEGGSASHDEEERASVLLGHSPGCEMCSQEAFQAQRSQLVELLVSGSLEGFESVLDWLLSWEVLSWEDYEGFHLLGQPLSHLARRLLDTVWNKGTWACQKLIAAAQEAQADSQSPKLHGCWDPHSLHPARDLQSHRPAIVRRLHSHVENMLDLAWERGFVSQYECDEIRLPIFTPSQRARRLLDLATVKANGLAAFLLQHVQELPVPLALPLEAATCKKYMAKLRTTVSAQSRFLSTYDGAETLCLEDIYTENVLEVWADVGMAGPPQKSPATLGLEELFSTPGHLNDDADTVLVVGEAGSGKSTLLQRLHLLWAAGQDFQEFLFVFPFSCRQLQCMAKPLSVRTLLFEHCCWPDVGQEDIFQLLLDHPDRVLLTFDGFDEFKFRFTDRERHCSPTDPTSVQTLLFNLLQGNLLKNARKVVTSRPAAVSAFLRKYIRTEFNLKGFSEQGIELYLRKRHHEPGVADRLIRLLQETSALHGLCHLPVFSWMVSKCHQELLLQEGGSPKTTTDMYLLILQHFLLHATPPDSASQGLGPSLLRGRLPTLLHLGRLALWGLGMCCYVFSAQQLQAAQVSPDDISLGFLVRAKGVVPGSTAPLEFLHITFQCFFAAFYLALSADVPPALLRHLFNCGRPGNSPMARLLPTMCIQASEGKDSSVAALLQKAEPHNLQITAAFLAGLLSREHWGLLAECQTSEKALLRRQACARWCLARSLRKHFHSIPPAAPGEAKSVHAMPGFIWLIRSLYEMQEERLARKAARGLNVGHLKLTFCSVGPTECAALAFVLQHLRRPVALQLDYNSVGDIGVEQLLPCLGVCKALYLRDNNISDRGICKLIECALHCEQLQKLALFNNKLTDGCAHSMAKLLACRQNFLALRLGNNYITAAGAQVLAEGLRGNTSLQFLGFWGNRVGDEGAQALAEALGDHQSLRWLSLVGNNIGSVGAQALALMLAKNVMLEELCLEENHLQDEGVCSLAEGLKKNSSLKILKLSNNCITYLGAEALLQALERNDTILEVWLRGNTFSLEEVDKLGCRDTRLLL

HEK293 [8] = experiment: cells; assay type: functional, cell-based; details: Homo sapiens; remark: listed apart in the source
HEK293 [9] = experiment: inhibition of NOD1-driven NF-kB reporter – cell-based, luminescence, uHTS, primary screen (AID 1578); assay type: functional; details: Homo sapiens
HeLa = experiment: ATP-based viability loss in HeLa cells – cell-based, CellTiter-Glo luminescence, cherry-pick samples, cytotoxicity control for MITF activator project, dose response (AID 540259); assay type: functional; details: Homo sapiens
[10] = Trypanosoma cruzi growth suppression in host cells – NIH3T3 host cells, beta-gal luminescence, confirmation (AID 2044); assay type: functional, cell-based;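 note: intracellular parasites grown in NIH/3T3 mouse fibroblasts as host cells; luminescent beta-galactosidase reporter signal from transgenic T. cruzi replicating inside host cells; inhibitors lower the luminescence signal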
cells [11] = experiment: cells
[12] = NIH3T3 cell viability loss – ATP luminescence, mouse fibroblasts, counter-screen, dose response (AID 2010); assay type: functional, cell-based;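 note: cells exposed to compound for about 90 hours before reading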
Cytochrome P450 2C9 = Cytochrome P450 2C9 (Homo sapiens, UniProt P11712)
Sequence of Cytochrome P450 2C9 (P11712 whole entry): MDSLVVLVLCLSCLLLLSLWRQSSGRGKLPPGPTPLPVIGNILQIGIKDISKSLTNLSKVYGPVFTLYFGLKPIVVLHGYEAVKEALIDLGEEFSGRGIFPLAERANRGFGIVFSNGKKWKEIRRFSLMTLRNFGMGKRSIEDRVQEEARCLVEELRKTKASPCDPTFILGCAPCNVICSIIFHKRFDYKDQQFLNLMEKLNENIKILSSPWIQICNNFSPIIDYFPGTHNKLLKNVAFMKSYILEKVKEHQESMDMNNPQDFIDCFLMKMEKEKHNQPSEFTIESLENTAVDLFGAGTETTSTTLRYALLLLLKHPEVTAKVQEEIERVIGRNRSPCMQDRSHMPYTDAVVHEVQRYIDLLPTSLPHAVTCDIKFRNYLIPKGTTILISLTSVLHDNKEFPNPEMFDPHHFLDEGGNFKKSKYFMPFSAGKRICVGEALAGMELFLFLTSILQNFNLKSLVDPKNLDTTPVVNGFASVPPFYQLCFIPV

cells [13] = assay type: functional
[14] = Vero E6 cell cytotoxicity, dose response, cytotoxicity control for non-replicating M. tuberculosis project, secondary assay (AID 492998); assay type: functional, VeroE6; details: Vero C1008
[15] = target: T2, DNA repair and recombination protein RAD54-like (Homo sapiens, UniProt Q92698); experiment: RAD54 Holliday junction migration blockers – biochemical, fluorescence, cherry-picked samples, dose series, confirmation (AID 651657); assay type: functional
T2 sequence (Q92698 whole entry): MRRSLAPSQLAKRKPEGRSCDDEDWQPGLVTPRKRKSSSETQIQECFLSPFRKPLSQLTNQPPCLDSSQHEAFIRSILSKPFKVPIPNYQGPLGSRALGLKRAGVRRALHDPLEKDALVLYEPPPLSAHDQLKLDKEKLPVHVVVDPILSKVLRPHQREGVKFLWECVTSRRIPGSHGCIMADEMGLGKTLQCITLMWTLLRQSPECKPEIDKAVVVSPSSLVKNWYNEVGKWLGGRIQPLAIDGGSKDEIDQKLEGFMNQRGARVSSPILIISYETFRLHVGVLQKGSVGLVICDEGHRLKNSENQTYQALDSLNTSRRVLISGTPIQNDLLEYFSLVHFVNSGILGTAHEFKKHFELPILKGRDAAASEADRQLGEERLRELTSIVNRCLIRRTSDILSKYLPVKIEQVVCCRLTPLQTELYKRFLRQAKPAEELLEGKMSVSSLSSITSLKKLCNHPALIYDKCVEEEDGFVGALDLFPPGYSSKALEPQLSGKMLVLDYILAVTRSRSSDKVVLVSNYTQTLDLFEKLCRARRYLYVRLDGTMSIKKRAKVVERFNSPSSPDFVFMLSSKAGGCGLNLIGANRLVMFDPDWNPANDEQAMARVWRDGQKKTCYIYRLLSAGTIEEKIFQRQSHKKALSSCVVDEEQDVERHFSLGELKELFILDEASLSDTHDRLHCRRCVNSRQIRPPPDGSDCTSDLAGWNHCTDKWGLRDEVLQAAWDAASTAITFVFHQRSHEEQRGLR

[16] = microbe, parasite or virus in culture; assay type: functional; details: Mycobacterium tuberculosis
Vero = experiment: cells; assay type: functional; details: Chlorocebus sabaeus
Cytochrome P450 3A4 = Cytochrome P450 3A4 (Homo sapiens, UniProt P08684); details: Potency;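 note: confirmatory qHTS run detecting inhibitors and substrates of CYP3A4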
Sequence of Cytochrome P450 3A4 (P08684 whole entry): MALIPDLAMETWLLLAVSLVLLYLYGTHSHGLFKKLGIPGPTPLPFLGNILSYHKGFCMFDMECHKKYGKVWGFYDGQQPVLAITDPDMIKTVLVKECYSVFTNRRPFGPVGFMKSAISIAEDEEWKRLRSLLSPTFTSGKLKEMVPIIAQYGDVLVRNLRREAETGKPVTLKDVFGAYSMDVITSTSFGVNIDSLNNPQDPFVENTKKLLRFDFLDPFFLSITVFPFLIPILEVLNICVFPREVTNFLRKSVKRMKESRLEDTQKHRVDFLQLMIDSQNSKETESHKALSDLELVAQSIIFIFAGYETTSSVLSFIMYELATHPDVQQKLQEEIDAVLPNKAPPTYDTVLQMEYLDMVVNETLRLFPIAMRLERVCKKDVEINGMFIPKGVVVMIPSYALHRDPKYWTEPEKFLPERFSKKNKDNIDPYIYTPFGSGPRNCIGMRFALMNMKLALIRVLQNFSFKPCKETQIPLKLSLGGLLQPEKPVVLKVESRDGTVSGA

[17] = target: T3, Ubiquitin-conjugating enzyme E2 N (Homo sapiens, UniProt P61088); assay type: functional;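 note: Dose-response confirmation in a TR-FRET assay detecting UBC13-driven polyubiquitin chain formation, inhibition measured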
T3 sequence (P61088 whole entry): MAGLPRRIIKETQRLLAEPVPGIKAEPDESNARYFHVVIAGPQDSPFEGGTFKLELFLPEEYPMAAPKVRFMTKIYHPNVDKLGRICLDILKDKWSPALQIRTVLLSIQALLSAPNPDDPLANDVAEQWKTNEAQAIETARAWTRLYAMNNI

Tumor necrosis factor = Tumor necrosis factor (Homo sapiens, UniProt P01375); experiment: analog potency on TNFa NF-kB signaling – cell-based, revised, SAR follow-up (AID 2337); assay type: functional
Sequence of Tumor necrosis factor (P01375 whole entry): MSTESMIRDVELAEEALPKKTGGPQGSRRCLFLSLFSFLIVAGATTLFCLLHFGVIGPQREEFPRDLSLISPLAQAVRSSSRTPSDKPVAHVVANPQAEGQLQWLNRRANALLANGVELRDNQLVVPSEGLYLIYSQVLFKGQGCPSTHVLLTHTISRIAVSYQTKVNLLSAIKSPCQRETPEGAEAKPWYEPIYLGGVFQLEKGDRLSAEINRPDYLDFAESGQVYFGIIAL

HEK293 [18] = experiment: cells; details: Homo sapiens
[19] = target: T4, Adenosylmethionine-8-amino-7-oxononanoate aminotransferase (Mycobacterium tuberculosis, UniProt P9WQ81); experiment: Mycobacterium tuberculosis BioA enzyme inhibitor Measured in Biochemical System Using Plate Reader - 2163-02_Inhibitor_Dose_CherryPick_Activity.; assay type: functional, Mycobacterium tuberculosis UT205
T4 sequence (P9WQ81 whole entry): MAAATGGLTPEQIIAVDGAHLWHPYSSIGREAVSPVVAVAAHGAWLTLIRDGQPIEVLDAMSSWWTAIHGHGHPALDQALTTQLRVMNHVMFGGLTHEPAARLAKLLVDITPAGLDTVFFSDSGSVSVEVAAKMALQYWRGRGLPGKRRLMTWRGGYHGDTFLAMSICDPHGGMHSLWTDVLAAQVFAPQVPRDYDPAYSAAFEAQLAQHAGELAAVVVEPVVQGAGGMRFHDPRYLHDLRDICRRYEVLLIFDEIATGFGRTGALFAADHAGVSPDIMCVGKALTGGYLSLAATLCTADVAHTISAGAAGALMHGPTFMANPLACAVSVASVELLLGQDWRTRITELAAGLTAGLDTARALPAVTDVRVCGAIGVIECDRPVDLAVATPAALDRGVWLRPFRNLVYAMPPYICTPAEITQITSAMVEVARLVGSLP

C[C@H]1CN([C@@H](C)CO)C(=O)Cc2cc(NC(=O)Nc3ccc(C(F)(F)F)cc3)ccc2O[C@@H]1CN(C)Cc1ccc(C(F)(F)F)cc1
AC50 [1]: 5.04 µM (active)

Cc1nc2ccc([N+](=O)[O-])cc2c(=O)n1Cc1ccc(Br)cc1
IC50 (Fatty acid synthase [2]): 0.719 µM (active) | IC50 (Fatty acid synthase [3]): 0.623 µM (active)

Fc1ccc(F)c(CNc2ncnc3cc(Cl)ccc23)c1
IC50 (HEK293 [4]): 11.9 µM (active) | IC50 (HEK293 [5]): > 20 µM (inactive) | IC50 (HEK293 [6]): 12.7 µM (inactive) | EC50 [7]: > 20 µM (inactive) | IC50 (HEK293 [8]): 6.42 µM (active) | EC50 (HEK293 [9]): 9.76 µM (active)

Cc1ccc(C(=O)Nc2ncccc2S(=O)(=O)c2ccccc2)cc1
AC50 (HeLa): > 350 µM (inactive)

O=C(NCc1cn(-c2ccccc2)nc1-c1ccccc1)c1cc([N+](=O)[O-])cc([N+](=O)[O-])c1
EC50 [10]: < 0.1 µM (active) | EC50 (cells [11]): 0.139 µM (active) | EC50 [12]: > 60 µM (not active) | AC50 (Cytochrome P450 2C9): 2.82 µM (inconclusive)

O=C(Nc1nnc(-c2ccco2)o1)c1cccc2ccccc12
IC50 (cells [13]): 4.54 µM (active) | CC50 [14]: > 20 µM (active)

COc1ccccc1CN1CC(C(=O)NCCN(C)CCc2ccccc2)CCC1=O (stereo not drawn)
EC50 [10]: < 0.1 µM (active) | EC50 (cells [11]): 0.061 µM (active) | EC50 [12]: > 60 µM (not active)

CCN(CC)CC(=O)Nc1cccc2c1C(=O)c1ccccc1C2=O
AC50 [15]: 100 µM (inactive)

CC/C(=C(\c1ccc(O)cc1)c1ccc(OCCN(C)C)cc1)c1ccccc1 [AFIMOXIFENE]
CC50 [16]: 16.6 µM (active) | CC50 (Vero): 19.4 µM (active) | AC50 (Cytochrome P450 3A4): 25.1 µM (inconclusive) | IC50 [17]: > 20 µM (inactive)

COc1cc2c(C)nc3onc(-c4ccccc4)c3c2cc1OC
IC50 (Fatty acid synthase [2]): 19.4 µM (active) | IC50 (Fatty acid synthase [3]): 7.51 µM (active)

O=S(=O)(Nc1nc2ccccc2nc1Nc1ccc2c(c1)OCO2)c1ccc(F)cc1
IC50 (HEK293 [4]): > 20 µM (inactive) | IC50 (HEK293 [5]): > 20 µM (inactive) | IC50 (HEK293 [6]): 6.29 µM (active) | EC50 [7]: 11.6 µM (active) | IC50 (HEK293 [8]): 8.92 µM (active) | EC50 (HEK293 [9]): 2.81 µM (active)

N#Cc1ccc(N2CCN(S(=O)(=O)c3ccc4c(c3)CCN4C(=O)C3CC3)CC2)cc1
IC50 (Tumor necrosis factor): 13.3 µM (active) | IC50 (HEK293 [18]): > 20 µM (inactive)

C[C@@H]1CCCCO[C@@H](CN(C)CC2CCCCC2)[C@@H](C)CN([C@H](C)CO)C(=O)c2cc(NS(=O)(=O)c3ccc(Cl)cc3)ccc2O1
AC50 [1]: 2.18 µM (active)

Cc1cc(OCC(=O)Nc2ccncc2)cc(C)c1Br
IC50 (HEK293 [4]): 13.3 µM (active) | IC50 (HEK293 [5]): > 20 µM (inactive) | IC50 (HEK293 [6]): 6.86 µM (active) | EC50 [7]: 8.76 µM (active) | IC50 (HEK293 [8]): 5.24 µM (active) | EC50 (HEK293 [9]): 3.21 µM (active)

COc1ccc([N+](=O)[O-])cc1C(=O)NC1CCN(Cc2ccccc2)CC1
AC50 [19]: 2.3 µM (active)

C[C@@H]1CN([C@@H](C)CO)C(=O)Cc2cc(NC(=O)Cn3cnnn3)ccc2O[C@H]1CN(C)Cc1ccc2c(c1)OCO2
AC50 [19]: 10.5 µM (active)
